Source: patent US20020086832A1, “Caspase inhibitors for inhibiting blood cell proliferation and for treating autoimmune diseases” (APOTECH RESEARCH AND DEVELOPMENT LTD., priority 1999, published 2002)
Entries after “also recorded” stand apart in the source; their conditions may differ.

Key:
Assay type in all cases: cell-based
[1] = tested on: IL-2 production of T-lymphocytes; assay: IL-2 concentration in supernatants of stimulated T-lymphocytes/PBL, CTLL bioassay; details: FIG. 4; for suppression of IL-2 production: anti-CD3 antibody stimulation (3 μg/ml immobilized), inhibitors 50 µM, supernatants after 24 hours; for IL-2 activity in supernatants / T-cell proliferation as reflected by IL-2 concentration in supernatants: immobilized anti-CD3 antibody (3 μg/ml) with or without crosslinked FasL (50 ng/ml)
Procedure: FIG. 4 illustrates the correlation of IL-2 expression and the use of caspase inhibitors using a bar diagram. […] The findings shown in FIG. 4 are based on experiments in which 106 ^6 PBL/ml were cultivated with immobilized anti-CD3 antibody (3 μg/ml) and FasL ([…]) in the presence or absence of the caspase inhibitors referred to above (50 µM). The supernatants were removed after 24 hours and examined with the help of a CTLL bioassay for their IL-2 concentration.
For this purpose, T-lymphocytes (10^6/ml) were stimulated with immobilized antiCD3 antibody (3 μg/ml) with or without crosslinked FasL (50 ng/ml). The supernatants of these preparations with a caspase inhibitor or without a caspase inhibitor as control were removed after the stimulation period and their respective IL-2 concentration was measured using a CTTL bioassay. The IL-2 concentration in the supernatants reflects the T-cell proliferation.

[2] = tested on: human peripheral blood lymphocytes; assay: Proliferation of human PBL/T-cells stimulated with anti-CD3 antibodies, [3H] thymidine incorporation; details: for inhibition of the stimulation (cell proliferation) brought about by the anti-CD3: human PBL, inhibitor 25 to 100 μM, four-day cultivation; for inhibition of the stimulation (cell proliferation) brought about by the anti-CD3 / effect on cell proliferation (cpm, [3H] thymidine incorporation): FIG. 1; for effect on cell proliferation (cpm, [3H] thymidine incorporation): human T-cells, 10 μg/ml soluble anti-CD3 antibodies, inhibitor concentrations above 25 μM
Procedure: For this purpose the T-cells were stimulated with 10 μg/ml soluble anti-CD3 antibodies in the presence of various caspase inhibitors. […] Plotted, the proliferation of the stimulated T-cells (cpm, measured by [^3H] thymidine incorporation) is found as a function of increasing concentrations of caspase inhibitors.
This means that the activity of caspase-8 is significant for the IL-2 production of T-cells. In the experiments on which FIG. 5 is based, PBL were activated with 10 μg/ml soluble anti-CD3 antibody in the presence or absence of zVAD-fink (50 μM) and in the presence of anti-CD3 antibody zVAD-fmk and 500 U/ml recombinant human IL-2, respectively.
For this purpose, the latter were prepared through Ficoll-Hypaque centrifugation. The cells (5×10^4 cells per well) were then cultivated on 96-well plates in the presence of different caspase inhibitors or, for control purposes, in their absence. The concentration of the caspase inhibitors was varied in a range of 25 to 100 μM. Finally, the cells were stimulated through anti-CD3 antibodies (TR66) or through a combined stimulation with anti-CD3 antibodies and soluble recombinant FasL with or without anti-FLAG sequence antibodies 1 μg/ml.
Cell proliferation was measured during the last 18 hours of the four-day cultivation period. The measuring variable for cell proliferation was the incorporation of [^3H] thymidine into the proliferating cells.

[3] = molecular target: T1, caspase-8 (Homo sapiens, UniProt Q14790); assay: Western blot of procaspase-8 cleavage in lysates of stimulated human T-lymphocytes; details: anti-CD3 antibody and crosslinked sFasL, 6 hours, IETD-fmk 50 μM; FIG. 6
T1 construct: procaspase-8, 55 kDa fraction, or proteolytically cleaved, active caspase-8, 26 kDa fraction, respectively; endogenous in cells; host or cells: human T-lymphocytes stimulated with anti-CD3 antibody and crosslinked sFasL
Procedure: FIG. 6 provides a Western blot. Human T-cells were cultivated either without stimulation (control), with soluble anti-CD3 antibody alone (3 μg/ml), or with anti-CD3 antibody and sFasL (50 ng/ml) which, as described above, is crosslinked via its FLAG sequence. The cell lysates were examined in accordance with the times shown in FIG. 6, with regard to the expression of procaspase-8 or of cleavage products of the procaspase-8.
In a further experimental approach, T-cells were stimulated with a combination of anti-CD3 antibodies and FasL for a period of 6 hours, namely in the presence of 50 µM of the caspase-8 inhibitor IETD-fmk.
After 0, 2, 4, 6 and 22 hours, cells were taken from the different preparations and lysated. The cell lysates were examined with the Western blot technique with respect to their caspase-8 activity (procaspase-8, 55 kDa fraction, or proteolytically cleaved, active caspase-8, 26 kDa fraction, respectively).

T1 sequence (Q14790 whole entry): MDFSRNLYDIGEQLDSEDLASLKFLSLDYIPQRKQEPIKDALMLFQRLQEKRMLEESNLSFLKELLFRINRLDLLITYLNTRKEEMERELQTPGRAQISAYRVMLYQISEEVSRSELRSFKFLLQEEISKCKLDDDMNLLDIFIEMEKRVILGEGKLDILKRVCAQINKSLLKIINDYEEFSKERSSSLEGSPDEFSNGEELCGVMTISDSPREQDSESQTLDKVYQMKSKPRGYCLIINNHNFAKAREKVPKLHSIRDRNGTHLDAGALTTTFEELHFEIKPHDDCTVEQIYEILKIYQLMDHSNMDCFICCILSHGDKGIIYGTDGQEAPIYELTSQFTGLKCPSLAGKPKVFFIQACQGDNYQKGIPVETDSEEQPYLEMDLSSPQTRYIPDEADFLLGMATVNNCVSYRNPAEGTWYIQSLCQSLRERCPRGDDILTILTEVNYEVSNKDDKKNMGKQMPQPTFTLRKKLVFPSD

Row | Substance | suppression of IL-2 production [1] | IL-2 activity in supernatants [1] | T-cell proliferation as reflected by IL-2 concentration in supernatants [1] | inhibition of the stimulation (cell proliferation) brought about by the anti-CD3 [2] | effect on cell proliferation (cpm, [3H] thymidine incorporation) [2] | active 26 kDa caspase-8 fraction/band in Western blot [3] | proteolytic cleavage of caspase-8 during stimulation [3] | cell proliferation with inhibitor plus exogenous recombinant human IL-2 ([2]; PBL, 10 μg/ml soluble anti-CD3 antibody, zVAD-fmk 50 μM and 500 U/ml IL-2, FIG. 5) | number of cells as against the control ([2]; PBL, 10 μg/ml soluble anti-CD3 antibody, zVAD-fmk 50 μM, FIG. 5)
1 | IETD-fmk | particularly effective | only weak | blocks | complete inhibition | clear inhibiting effect | cannot be detected; also recorded: does not lead to any 26 kDa band being detected | effectively blocked | – | –
2 | zVAD-fmk | particularly effective | only weak | blocks | complete inhibition; also recorded: partial inhibition | clear inhibiting effect | – | – | increases dramatically | clear reduction
